# In US10093673B2, “Tetracyclic pyridone compounds as antivirals” (Novartis AG, priority 2016, dated 2018):
# Like-named read-outs stand apart in the source and are kept apart here.
# How the values were obtained:
# HBsAg secretion = assay: HBsAg assay (ELISA of secreted HBsAg, HepG2-Clone42 cells); format: cell-based, HBV
# Experimental: HepG2-Clone42, a Tet-inducible HBV-expressing cell line with a stably integrated 1.3mer copy of the HBV ayw strain, was generated based on the Tet-inducible HepAD38 cell line with slight modifications. Ladner S K, et al., Antimicrobial Agents and Chemotherapy. 41(8):1715-1720 (1997). HepG2-Clone42 cells were cultured in DMEM/F-12+Glutamax™ (Life Technologies, Carlsbad, Calif., USA), supplemented with 10% fetal bovine serum (Life Technologies), G-418 (Corning, Manassas, Va., USA) at a final concentration of 0.5 mg/mL, and 5 μg/mL Doxycycline (Sigma, St. Louis, Mo., USA) and maintained in 5% CO2 at 37° C.
# HepG2-Clone42 cells were seeded in into black clear-bottom 96-well plates at a concentration of 6.0×10^4 cells/well. 24 hours post-seeding, the cells were treated with 200 μl/well of media containing five-fold serial dilutions of compounds in DMSO. DMSO alone was used as the no drug control. The final DMSO concentration in all wells was 0.5%.
# The HBsAg ELISA kit (Alpha Diagnostic International, San Antonio, Tex., USE, Catalog #4110) was used to determine the level (semi-quantitative) of secreted HBV sAg.
# The HBSAg ELISA assay was performed following the manufacturer's protocol as described.
# Step 1. Pipet 100 μL each of compound or DMSO treated samples into HBsAg ELISA plates. Seal plates and incubate at room temp for 60 minutes.
# Step 2. Aspirate samples and wash three times with Wash Buffer. Dispense 100μ of antibody-HRP conjugate to each well. Incubate at room temp for 30 minutes.
# Step 3. Aspirate samples and wash three times with Wash Buffer. Add 100 μL of TMB Substrate to all wells and incubate 15 minutes at room temp.
# Step 4. Dispense 100 μL of Stop Solution to each well. Measure absorbance of ELISA plate at 450 nm.
# EC50 values were determined as follows: • 1. Determine the percent of HBsAg secretion inhibition. Calculate the percent inhibition on of HBsAg secretion inhibition using the following equation: 100×(XC−MB)/(MD−MB) • where XC is the absorbance signal from compound-treated well; MB is average absorbance signal (background signal) for column 12 (no cells+HBsAg ELISA sample buffer) and MD is average absorbance signal from DMSO-treated wells. Then calculate EC50 values by non-linear regression using a four parameter curve logistic equation. The curve fit model employed is XLFit Dose Response One Site Model 204: y=(A+((B−A)/(1+(10^((C−x)*D))))) where A is the minimum y value, B is the maximum y value, C is the log EC50 value, and D is the slope factor. High Throughput Solubility Measurement • 1. Transfer 20 ul of 10 mM DMSO stock solution into a 96 deep well plate labeled as […] and 5 ul to another plate labeled as compound standard plate. • 2. Place the buffer plate in a Multi-Tainer MT-4 container (FTS Systems). Freeze dry overnight to remove DMSO. • 3. Add 100 ul of Cl-free PBS (pH 6.8) to the dried compound in the buffer plate and 95 ul of DMSO to the standard plate. • 4. The buffer plate is be sonicated in a water bath for 10 min. • 5. The two plates are then placed onto the VWR orbital shaker to equilibrate for 24 hours at room temperature. • 6. The buffer plate is centrifuged at 4000 rpm for 30 min. • 7. Transfer 10 ul aliquots of supernatant from the buffer plate to a sample plate and dilute 5 fold. • 8. Inject both compound standard and sample into the UPLC/UV/CLND/MS to generate multi detector qualitative and quantitive analytical data. • 9. Data was processed with Xcalibur. CLND equimolar response was used for measuring compound concentration of DMSO solution. UV270 nm or MS relative ratio was used for solubility determination.
# [1] = Pharmacokinetics in dog (iv and PO); format: in vivo; conditions: for Cmax / Tmax / AUC / clearance / bioavailability / Vd: in vivo; for bioavailability: read-out: Oral BA (% F); for Vd: read-out: Vss
# [2] = Pharmacokinetics in rat (iv and PO); format: in vivo; conditions: for Cmax / Tmax / AUC / clearance / bioavailability / Vd: in vivo; for bioavailability: read-out: Oral BA (% F); for Vd: read-out: Vss
# [3] = Pharmacokinetics in mice (iv and PO); format: in vivo; conditions: for Cmax / Tmax / AUC / clearance / bioavailability / Vd: mouse, in vivo; for bioavailability: read-out: Oral BA (% F); for Vd: read-out: Vss
# [4] = High throughput solubility measurement in PBS; format: physicochemical; conditions: Cl-free PBS, aqueous buffer, thermodynamic from solid; PBS (phosphate-buffered saline), pH 6.8, 24 hours at room temperature
# Text: The following table provides data for solubility of compounds of the invention in PBS (phosphate-buffered saline), using a standard solubility screening method.
# [5] = Hepatitis B virus, read-out: HBsAg EC50, HepG2-Clone42 cells, HBsAg secretion reduced 50% vs DMSO control
# [6] = read-out: HBsAg EC50, HepG2-Clone42 cells, HBsAg secretion reduced 50% vs DMSO control
smiles,measurement,setting,value
COCCCOc1cc2c(cc1OC)-c1c(F)c(=O)c(C(=O)O)cn1[C@@H]1[C@H]2CCC1(C)C (racemic) [Compound 3.2],EC50,HBsAg secretion; [5],740 nM
"COCCCOc1cc2c(cc1OC)-c1cc(=O)c(C(=O)O)cn1[C@H]1[C@H]2CCC1(C)C (racemic) [rac-2, 10-methoxy-11-(3-methoxypropoxy)-3,3-dimethyl-7-oxo-1,2,3,3a,7,12b-hexahydrocyclopenta[c]pyrido[2,1-a]isoquinoline-6-carboxylic acid]",EC50,HBsAg secretion; [5],460 nM
"COCCCOc1cc2c(cc1OC)-c1cc(=O)c(C(=O)O)cn1C1C2CCCC1(C)C (single isomer, unassigned) [Compound 9.1, 11-methoxy-12-(3-methoxypropoxy)-4,4-dimethyl-8-oxo-2,3,4,4a,8,13b-hexahydro-1H-pyrido[1,2-f]phenanthridine-7-carboxylic acid]",EC50,HBsAg secretion; [6],9 nM
"COCCCOc1cc2c(cc1OC)-c1cc(=O)c(C(=O)O)cn1C1C2CCCC1(C)C (single isomer, unassigned) [Compound 9.2, 11-methoxy-12-(3-methoxypropoxy)-4,4-dimethyl-8-oxo-2,3,4,4a,8,13b-hexahydro-1H-pyrido[1,2-f]phenanthridine-7-carboxylic acid]",EC50,HBsAg secretion; [6],303 nM
"COCCCOc1cc2c(cc1Cl)-c1cc(=O)c(C(=O)O)cn1[C@H]1[C@@H]2CCC1(C)C (stereo in doubt) [Compound 5.1, (3aS,12bR)-10-chloro-11-(3-methoxypropoxy)-3,3-dimethyl-7-oxo-1,2,3,3a,7,12b-hexahydrocyclopenta[c]pyrido[2,1-a]isoquinoline-6-carboxylic acid]",EC50,HBsAg secretion; [5],6 nM
"COCCCOc1cc2c(cc1OC)-c1cc(=O)c(C(=O)O)cn1[C@H]1[C@@H]2CCC1(C)C [Compound 1.1, (3aS,12bR)-10-methoxy-11-(3-methoxypropoxy)-3,3-dimethyl-7-oxo-1,2,3,3a,7,12b-hexahydrocyclopenta[c]pyrido[2,1-a]isoquinoline-6-carboxylic acid]",T1/2term.,[1],5.9 h
same,Cmax,[1]; PO 1.0 mg/kg,1900 nM
same,Tmax,[1]; PO 1.0 mg/kg,0.22 h
same,AUC,"[1]; PO 1.0 mg/kg, read-out: AUC PO",5.7 µM·h
same,clearance,[1]; iv 0.5 mg/kg,6.4 mL/min/kg
same,bioavailability,"[1]; iv 0.5 mg/kg, PO 1.0 mg/kg",93%
same,AUC,"[1]; iv 0.5 mg/kg, read-out: AUC iv",3.1 µM·h
same,Vd,[1]; iv 0.5 mg/kg,1.7 L/kg
same,T1/2term.,[2],2.4 h
same,Cmax,[2]; PO 2.0 mg/kg,1720 nM
same,Tmax,[2]; PO 2.0 mg/kg,1.33 h
same,AUC,"[2]; PO 2.0 mg/kg, read-out: AUC PO",4.5 µM·h
same,clearance,[2]; iv 1.0 mg/kg,15.3 mL/min/kg
same,bioavailability,"[2]; iv 1.0 mg/kg, PO 2.0 mg/kg",97%
same,AUC,"[2]; iv 1.0 mg/kg, read-out: AUC iv",2.5 µM·h
same,Vd,[2]; iv 1.0 mg/kg,1.3 L/kg
same,EC50,HBsAg secretion; [5],0.1 nM
same,T1/2term.,[3],1.6 h
same,Cmax,[3]; PO 2.0 mg/kg,570 nM
same,Tmax,[3]; PO 2.0 mg/kg,0.5 h
same,AUC,"[3]; PO 2.0 mg/kg, read-out: AUC PO",1.7 µM·h
same,clearance,[3]; iv 1.0 mg/kg,24.6 mL/min/kg
same,bioavailability,"[3]; iv 1.0 mg/kg, PO 2.0 mg/kg",59%
same,AUC,"[3]; iv 1.0 mg/kg, read-out: AUC iv",1.5 µM·h
same,Vd,[3]; iv 1.0 mg/kg,3.6 L/kg
same,solubility at 24 h,[4],2400 µM
"COCCCOc1cc2c(cc1OC)-c1cc(=O)c(C(=O)O)cn1[C@@H]1[C@H]2CCC1(C)C [Compound 1.2, (3aR,12bS)-10-methoxy-11-(3-methoxypropoxy)-3,3-dimethyl-7-oxo-1,2,3,3a,7,12b-hexahydrocyclopenta[c]pyrido[2,1-a]isoquinoline-6-carboxylic acid]",EC50,HBsAg secretion; [5],13 nM
"COCCCOc1cc2c(cc1OC)-c1c(F)c(=O)c(C(=O)O)cn1[C@H]1[C@@H]2CCC1(C)C [Compound 3.1, (3aS,12bR)-8-fluoro-10-methoxy-11-(3-methoxypropoxy)-3,3-dimethyl-7-oxo-1,2,3,3a,7,12b-hexahydrocyclopenta[c]pyrido[2,1-a]isoquinoline-6-carboxylic acid]",T1/2term.,[1],7.2 h
same,Cmax,[1]; PO 1.0 mg/kg,6200 nM
same,Tmax,[1]; PO 1.0 mg/kg,1.5 h
same,AUC,"[1]; PO 1.0 mg/kg, read-out: AUC PO",26.7 µM·h
same,clearance,[1]; iv 0.5 mg/kg,1.3 mL/min/kg
same,bioavailability,"[1]; iv 0.5 mg/kg, PO 1.0 mg/kg",96%
same,AUC,"[1]; iv 0.5 mg/kg, read-out: AUC iv",13.3 µM·h
same,Vd,[1]; iv 0.5 mg/kg,0.6 L/kg
same,T1/2term.,[2],9.2 h
same,Cmax,[2]; PO 2.0 mg/kg,6500 nM
same,Tmax,[2]; PO 2.0 mg/kg,0.5 h
same,AUC,"[2]; PO 2.0 mg/kg, read-out: AUC PO",19.6 µM·h
same,clearance,[2]; iv 1.0 mg/kg,2.1 mL/min/kg
same,bioavailability,"[2]; iv 1.0 mg/kg, PO 2.0 mg/kg",57%
same,AUC,"[2]; iv 1.0 mg/kg, read-out: AUC iv",16.6 µM·h
same,Vd,[2]; iv 1.0 mg/kg,0.6 L/kg
same,EC50,HBsAg secretion; [5],0.3 nM
same,T1/2term.,[3],3.8 h
same,Cmax,[3]; PO 2.0 mg/kg,3000 nM
same,Tmax,[3]; PO 2.0 mg/kg,0.5 h
same,AUC,"[3]; PO 2.0 mg/kg, read-out: AUC PO",9.5 µM·h
same,clearance,[3]; iv 1.0 mg/kg,6.9 mL/min/kg
same,bioavailability,"[3]; iv 1.0 mg/kg, PO 2.0 mg/kg",87%
same,AUC,"[3]; iv 1.0 mg/kg, read-out: AUC iv",5.5 µM·h
same,Vd,[3]; iv 1.0 mg/kg,1 L/kg
same,solubility at 24 h,[4],1600 µM
"COCCCOc1cc2c(cc1Cl)-c1cc(=O)c(C(=O)O)cn1[C@@H]1[C@H]2CCC1(C)C [Compound 5.2, (3aR,12bS)-10-chloro-11-(3-methoxypropoxy)-3,3-dimethyl-7-oxo-1,2,3,3a,7,12b-hexahydrocyclopenta[c]pyrido[2,1-a]isoquinoline-6-carboxylic acid]",EC50,HBsAg secretion; [5],0.1 nM
"COCCCOc1cc2c(cc1OC)-c1cc(=O)c(C(=O)O)cn1C1CCCC21 (stereo not shown) [Compound 6.1, 10-methoxy-11-(3-methoxypropoxy)-7-oxo-1,2,3,3a,7,12b-hexahydrocyclopenta[c]pyrido[2,1-a]isoquinoline-6-carboxylic acid]",EC50,HBsAg secretion; [5],9 nM
"COCCCOc1cc2c(cc1OC)-c1cc(=O)c(C(=O)O)cn1C1CCCC21 (stereo not shown) [Compound 6.2, 10-methoxy-11-(3-methoxypropoxy)-7-oxo-1,2,3,3a,7,12b-hexahydrocyclopenta[c]pyrido[2,1-a]isoquinoline-6-carboxylic acid]",EC50,HBsAg secretion; [6],5 nM
"COCCCOc1cc2c(cc1OC)-c1c(F)c(=O)c(C(=O)O)cn1[C@H]1[C@@H]2OCC1(C)C [Compound 7.1, (3aR,12bR)-8-fluoro-10-methoxy-11-(3-methoxypropoxy)-3,3-dimethyl-7-oxo-3,3a,7,12b-tetrahydro-2H-furo[3,2-c]pyrido[2,1-a]isoquinoline-6-carboxylic acid]",EC50,HBsAg secretion; [5],0.8 nM
COCCCOc1cc2c(cc1OC)-c1c(F)c(=O)c(C(=O)O)cn1C1[C@H]2OCC1(C)C (stereo partly shown) [Compound 7.2],EC50,HBsAg secretion; [5],90 nM
"COCCCOc1cc2c(cc1OC)-c1cc(=O)c(C(=O)O)cn1[C@H]1[C@@H]2COC1(C)C [Compound 8.1, (3aS,12bR)-10-methoxy-11-(3-methoxypropoxy)-3,3-dimethyl-7-oxo-3,3a,7,12b-tetrahydro-1H-furo[3,4-c]pyrido[2,1-a]isoquinoline-6-carboxylic acid]",EC50,HBsAg secretion; [5],1 nM
